Results as given in the NIST ThermoML archive (doi:10.1016/j.jct.2014.11.007).
± gives the expanded uncertainty stated by the source.

Key:
[1] = mn = molality of the nth substance listed, in mol/kg; settings: 100 kPa, Liquid; for speed of sound: Frequency=3 MHz, Sing-around technique in a fixed-path interferometer; for mass density: Vibrating tube method
[2] = 100 kPa, Liquid, Vibrating tube method

| Compound | speed of sound ([1]; 293.15 K, m1 = 0.01) [m/s] | speed of sound ([1]; 293.15 K, m1 = 0.03) [m/s] | speed of sound ([1]; 293.15 K, m1 = 0.05) [m/s] | mass density ([1]; 293.15 K, m1 = 0.03) [kg/m3] | mass density ([1]; 293.15 K, m1 = 0.05) [kg/m3] | speed of sound ([1]; 298.15 K, m1 = 0.01) [m/s] | speed of sound ([1]; 298.15 K, m1 = 0.03) [m/s] | speed of sound ([1]; 298.15 K, m1 = 0.05) [m/s] | mass density ([1]; 298.15 K, m1 = 0.01) [kg/m3] | mass density ([1]; 298.15 K, m1 = 0.03) [kg/m3] | mass density ([1]; 298.15 K, m1 = 0.05) [kg/m3] | speed of sound ([1]; 303.15 K, m1 = 0.01) [m/s] | speed of sound ([1]; 303.15 K, m1 = 0.03) [m/s] | speed of sound ([1]; 303.15 K, m1 = 0.05) [m/s] | mass density ([1]; 303.15 K, m1 = 0.03) [kg/m3] | mass density ([1]; 303.15 K, m1 = 0.05) [kg/m3] | speed of sound ([1]; 308.15 K, m1 = 0.01) [m/s] | speed of sound ([1]; 308.15 K, m1 = 0.03) [m/s] | speed of sound ([1]; 308.15 K, m1 = 0.05) [m/s] | mass density ([1]; 308.15 K, m1 = 0.03) [kg/m3] | also measured |
| --- | --- | --- | --- | --- | --- | --- | --- | --- | --- | --- | --- | --- | --- | --- | --- | --- | --- | --- | --- | --- | --- |
| O=C(O)[C@@H]1CCCN1 [L-proline] + O | 1483.8 ± 1.6 | 1485.8 ± 1.6 | 1487.4 ± 1.6 | 999.275 ± 0.26 | 999.919 ± 0.26 | 1497.8 ± 1.6 | 1499.8 ± 1.6 | 1501 ± 1.6 | 997.474 ± 0.26 | 998.109 ± 0.26 | 998.747 ± 0.26 | 1510.1 ± 1.6 | 1511.8 ± 1.6 | 1512.9 ± 1.6 | 996.709 ± 0.26 | 997.338 ± 0.26 | 1520.7 ± 1.6 | 1522.4 ± 1.6 | 1523.5 ± 1.6 | 995.083 ± 0.26 | mass density ([1]; 293.15 K, m1 = 0.01): 998.631 ± 0.26 kg/m3; mass density ([1]; 303.15 K, m1 = 0.01): 996.082 ± 0.26 kg/m3; mass density ([1]; 308.15 K, m1 = 0.01): 994.462 ± 0.26 kg/m3; mass density ([1]; 308.15 K, m1 = 0.05): 995.708 ± 0.26 kg/m3; speed of sound ([1]; 313.15 K, m1 = 0.01): 1529.8 ± 1.6 m/s; speed of sound ([1]; 313.15 K, m1 = 0.03): 1531.4 ± 1.6 m/s; speed of sound ([1]; 313.15 K, m1 = 0.05): 1532.3 ± 1.6 m/s; mass density ([1]; 313.15 K, m1 = 0.01): 992.639 ± 0.26 kg/m3; mass density ([1]; 313.15 K, m1 = 0.03): 993.259 ± 0.26 kg/m3; mass density ([1]; 313.15 K, m1 = 0.05): 993.88 ± 0.26 kg/m3 |
| NCC(=O)O [2-aminoacetic acid] + O | 1483.7 ± 1.5 | 1484.5 ± 1.5 | 1485.7 ± 1.5 | 999.313 ± 0.2 | 999.93 ± 0.2 | 1497.8 ± 1.5 | 1498.5 ± 1.5 | 1499.6 ± 1.5 | 997.478 ± 0.2 | 998.145 ± 0.2 | 998.761 ± 0.2 | 1510.2 ± 1.5 | 1510.9 ± 1.5 | 1511.9 ± 1.5 | 996.744 ± 0.2 | 997.353 ± 0.2 | 1520.8 ± 1.5 | 1521.5 ± 1.5 | 1522.5 ± 1.5 | 995.118 ± 0.2 | speed of sound ([1]; 313.15 K, m1 = 0.01): 1529.8 ± 1.5 m/s; speed of sound ([1]; 313.15 K, m1 = 0.03): 1530.5 ± 1.5 m/s; speed of sound ([1]; 313.15 K, m1 = 0.05): 1531.5 ± 1.5 m/s; mass density ([1]; 313.15 K, m1 = 0.03): 993.306 ± 0.2 kg/m3; mass density ([1]; 313.15 K, m1 = 0.05): 993.898 ± 0.2 kg/m3 |
| O [water] | – | – | – | – | – | – | – | – | – | – | – | – | – | – | – | – | – | – | – | – | mass density ([2]; 293.15 K): 998.272 ± 0.2 kg/m3; mass density ([2]; 308.15 K): 994.108 ± 0.2 kg/m3; mass density ([2]; 313.15 K): 992.29 ± 0.2 kg/m3 |
